Source: US12077503B2, “Substituted cyclic amides and their use as herbicides” (FMC CORPORATION, priority 2015, dated 2024)
Read-outs that look alike come from different tables or passages of the source.

What was measured:
Assay type in all cases: in vivo
[1] = tested on: wheat (Triticum aestivum); test: Test A postemergence; conditions: Triticum aestivum, post-emergence, 240 h, Postemergence; for plant injury at 125 g/ha: 125 g ai/ha; for plant injury at 500 g/ha: 500 g ai/ha, visual injury, 0 to 100 scale (0 no effect, 100 complete control), approx. 10 d
Procedure, shortened: (§1)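 Seeded soil received test chemicals as a preemergence directed spray, and seedlings at one to two leaves, 2–10 cm tall, received them postemergence, in a non-phytotoxic, surfactant-containing solvent mixture. Pots were held in a greenhouse for approximately 10 d, then rated for injury from 0, no effect, to 100, complete control.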

[2] = tested on: barnyardgrass (Echinochloa crus-galli); test: Test A postemergence; conditions: Echinochloa crus-galli, post-emergence, 240 h, Postemergence; for pest or weed control at 125 g/ha: 125 g ai/ha; for pest or weed control at 500 g/ha: 500 g ai/ha, visual injury, 0 to 100 scale (0 no effect, 100 complete control), approx. 10 d
Procedure, shortened: as §1

[3] = tested on: ragweed (common ragweed, Ambrosia elatior); test: Test A postemergence; conditions: Ambrosia artemisiifolia, post-emergence, 240 h, Postemergence; for pest or weed control at 125 g/ha: 125 g ai/ha; for pest or weed control at 500 g/ha: 500 g ai/ha, visual injury, 0 to 100 scale (0 no effect, 100 complete control), approx. 10 d
Procedure, shortened: as §1

[4] = tested on: ryegrass, Italian (Italian ryegrass, Lolium multiflorum); test: Test A postemergence; conditions: Lolium multiflorum, post-emergence, 240 h, Postemergence; for pest or weed control at 125 g/ha: 125 g ai/ha; for pest or weed control at 500 g/ha: 500 g ai/ha, visual injury, 0 to 100 scale (0 no effect, 100 complete control), approx. 10 d
Procedure, shortened: as §1

[5] = tested on: giant foxtail (Setaria faberii); test: Test A postemergence; conditions: Setaria faberi, post-emergence, 240 h, Postemergence; for pest or weed control at 125 g/ha: 125 g ai/ha; for pest or weed control at 500 g/ha: 500 g ai/ha, visual injury, 0 to 100 scale (0 no effect, 100 complete control), approx. 10 d
Procedure, shortened: as §1

Kochia (Kochia scoparia) [6] = test: Test A postemergence; conditions: Bassia scoparia, post-emergence, 240 h, Postemergence; for pest or weed control at 125 g/ha: 125 g ai/ha; for pest or weed control at 500 g/ha: 500 g ai/ha, visual injury, 0 to 100 scale (0 no effect, 100 complete control), approx. 10 d
Procedure, shortened: as §1

[7] = tested on: pigweed (Amaranthus retroflexus); test: Test A postemergence; conditions: Amaranthus retroflexus, post-emergence, 240 h, Postemergence; for pest or weed control at 125 g/ha: 125 g ai/ha; for pest or weed control at 500 g/ha: 500 g ai/ha, visual injury, 0 to 100 scale (0 no effect, 100 complete control), approx. 10 d
Procedure, shortened: as §1

corn (Zea mays) = test: Test A postemergence; conditions: Zea mays, post-emergence, 240 h, Postemergence; for Corn plant response rating (crop injury, 0 = no effect, 100 = complete kill) at 500 g/ha: 500 g ai/ha, visual injury, 0 to 100 scale (0 no effect, 100 complete control), approx. 10 d
Procedure, shortened: as §1

[8] = tested on: blackgrass (Alopecurus myosuroides); test: Test A postemergence; conditions: Alopecurus myosuroides, post-emergence, 240 h, Postemergence; for pest or weed control at 125 g/ha: 125 g ai/ha; for pest or weed control at 500 g/ha: 500 g ai/ha, visual injury, 0 to 100 scale (0 no effect, 100 complete control), approx. 10 d
Procedure, shortened: as §1

[9] = tested on: Galium (catchweed bedstraw, Galium aparine); test: Test A postemergence; conditions: Galium, post-emergence, 240 h, Postemergence; for pest or weed control at 125 g/ha: 125 g ai/ha; for pest or weed control at 500 g/ha: 500 g ai/ha, visual injury, 0 to 100 scale (0 no effect, 100 complete control), approx. 10 d
Procedure, shortened: as §1

[10] = tested on: ragweed (common ragweed, Ambrosia elatior); test: Test A preemergence; conditions: Ambrosia artemisiifolia, pre-emergence, 240 h, 0 to 100 scale (0 no effect, 100 complete control), read-out: Plant response rating, Ragweed; for pest or weed control at 500 g/ha: 500 g ai/ha, preemergence; for pest or weed control at 125 g/ha: Preemergence, 125 g ai/ha
Procedure, shortened: as §1

[11] = tested on: ryegrass, Italian (Italian ryegrass, Lolium multiflorum); test: Test A preemergence; conditions: Lolium multiflorum, pre-emergence, 240 h, 0 to 100 scale (0 no effect, 100 complete control), read-out: Plant response rating, Ryegrass, Italian; for pest or weed control at 500 g/ha: 500 g ai/ha, preemergence; for pest or weed control at 125 g/ha: Preemergence, 125 g ai/ha
Procedure, shortened: as §1

[12] = tested on: giant foxtail (Setaria faberii); test: Test A preemergence; conditions: Setaria faberi, pre-emergence, 240 h, 0 to 100 scale (0 no effect, 100 complete control), read-out: Plant response rating, Foxtail, Giant; for pest or weed control at 500 g/ha: 500 g ai/ha, preemergence; for pest or weed control at 125 g/ha: Preemergence, 125 g ai/ha
Procedure, shortened: as §1

Kochia (Kochia scoparia) [13] = test: Test A preemergence; conditions: Bassia scoparia, pre-emergence, 240 h, 0 to 100 scale (0 no effect, 100 complete control), read-out: Plant response rating, Kochia; for pest or weed control at 500 g/ha: 500 g ai/ha, preemergence; for pest or weed control at 125 g/ha: Preemergence, 125 g ai/ha
Procedure, shortened: as §1

[14] = tested on: pigweed (Amaranthus retroflexus); test: Test A preemergence; conditions: Amaranthus retroflexus, pre-emergence, 240 h, 0 to 100 scale (0 no effect, 100 complete control), read-out: Plant response rating, Pigweed; for pest or weed control at 500 g/ha: 500 g ai/ha, preemergence; for pest or weed control at 125 g/ha: Preemergence, 125 g ai/ha
[15] = read-out: Plant response rating, Wheat
[16] = read-out: Plant response rating, Barnyardgrass
[17] = read-out: Plant response rating, Ragweed
[18] = read-out: Plant response rating, Ryegrass, Italian
[19] = read-out: Plant response rating, Foxtail, Giant
[20] = read-out: Plant response rating, Kochia
[21] = read-out: Plant response rating, Pigweed
[22] = read-out: Plant response rating, Blackgrass
[23] = read-out: Plant response rating, Galium

| Compound | plant injury at 500 g/ha [1, 15] | pest or weed control at 500 g/ha [2, 16] | pest or weed control at 500 g/ha [3, 17] | pest or weed control at 500 g/ha [4, 18] | pest or weed control at 500 g/ha [5, 19] | pest or weed control at 500 g/ha (Kochia (Kochia scoparia) [6]; [20]) | pest or weed control at 500 g/ha [7, 21] | Corn plant response rating (crop injury, 0 = no effect, 100 = complete kill) at 500 g/ha (corn (Zea mays)) | pest or weed control at 500 g/ha [8, 22] | pest or weed control at 500 g/ha [9, 23] | pest or weed control at 500 g/ha [10] | pest or weed control at 125 g/ha [10] | pest or weed control at 500 g/ha [11] | pest or weed control at 125 g/ha [11] | pest or weed control at 500 g/ha [12] | pest or weed control at 125 g/ha [12] | pest or weed control at 500 g/ha (Kochia (Kochia scoparia) [13]) | pest or weed control at 125 g/ha (Kochia (Kochia scoparia) [13]) | pest or weed control at 500 g/ha [14] | pest or weed control at 125 g/ha [14] | other results |
| --- | --- | --- | --- | --- | --- | --- | --- | --- | --- | --- | --- | --- | --- | --- | --- | --- | --- | --- | --- | --- | --- |
| O=C1NC[C@H](c2nccc(C(F)(F)F)n2)[C@H]1C(=O)Nc1cccc(F)c1F [Compound 1392] | 30% | 40% | 0% | 0% | 30% | 0% | 0% | 20% | 0% | 0% | 0% | 0% | 0% | 0% | 60% | 0% | 0% | 0% | 0% | 0% | plant injury at 125 g/ha ([1]; visual injury after approx. 10 d, 0 to 100 scale, 0 no effect, 100 complete control, read-out: Plant response rating, Wheat): 0%; pest or weed control at 125 g/ha ([2]; visual injury after approx. 10 d, 0 to 100 scale, 0 no effect, 100 complete control, read-out: Plant response rating, Barnyardgrass): 0%; pest or weed control at 125 g/ha ([3]; visual injury after approx. 10 d, 0 to 100 scale, 0 no effect, 100 complete control, read-out: Plant response rating, Ragweed): 0%; pest or weed control at 125 g/ha ([4]; visual injury after approx. 10 d, 0 to 100 scale, 0 no effect, 100 complete control, read-out: Plant response rating, Ryegrass, Italian): 0%; pest or weed control at 125 g/ha ([5]; visual injury after approx. 10 d, 0 to 100 scale, 0 no effect, 100 complete control, read-out: Plant response rating, Foxtail, Giant): 0%; pest or weed control at 125 g/ha (Kochia (Kochia scoparia) [6]; visual injury after approx. 10 d, 0 to 100 scale, 0 no effect, 100 complete control, read-out: Plant response rating, Kochia): 0%; pest or weed control at 125 g/ha ([7]; visual injury after approx. 10 d, 0 to 100 scale, 0 no effect, 100 complete control, read-out: Plant response rating, Pigweed): 0%; Corn plant response rating (crop injury, 0 = no effect, 100 = complete kill) at 125 g/ha (corn (Zea mays); 125 g ai/ha, visual injury after approx. 10 d, 0 to 100 scale, 0 no effect, 100 complete control): 0%; pest or weed control at 125 g/ha ([8]; visual injury after approx. 10 d, 0 to 100 scale, 0 no effect, 100 complete control, read-out: Plant response rating, Blackgrass): 0%; pest or weed control at 125 g/ha ([9]; visual injury after approx. 10 d, 0 to 100 scale, 0 no effect, 100 complete control, read-out: Plant response rating, Galium): 0% |
| Cc1c(F)ccc([C@H]2CNC(=O)[C@@H]2C(=O)Nc2ccc(F)cc2F)c1F [Compound 1328] | 0% | 90% | 0% | 30% | 40% | 0% | 0% | 0% | 0% | 30% | 0% | 0% | 30% | 0% | 90% | 50% | 50% | 30% | 0% | 0% | plant injury at 125 g/ha ([1]; visual rating about 10 d after treatment, read-out: Wheat plant response rating (0 to 100 scale)): 0%; pest or weed control at 125 g/ha ([2]; visual rating about 10 d after treatment, read-out: Barnyardgrass plant response rating (0 to 100 scale, 0 no effect, 100 complete control)): 60%; pest or weed control at 125 g/ha ([3]; visual rating about 10 d after treatment, read-out: Ragweed plant response rating (0 to 100 scale)): 0%; pest or weed control at 125 g/ha ([4]; visual rating about 10 d after treatment, read-out: Ryegrass, Italian plant response rating (0 to 100 scale)): 0%; pest or weed control at 125 g/ha ([5]; visual rating about 10 d after treatment, read-out: Foxtail, Giant plant response rating (0 to 100 scale)): 0%; pest or weed control at 125 g/ha (Kochia (Kochia scoparia) [6]; visual rating about 10 d after treatment, read-out: Kochia plant response rating (0 to 100 scale)): 0%; pest or weed control at 125 g/ha ([7]; visual rating about 10 d after treatment, read-out: Pigweed plant response rating (0 to 100 scale)): 0%; plant injury at 125 g/ha (corn (Zea mays); 125 g ai/ha, visual rating about 10 d after treatment, read-out: Corn plant response rating (0 to 100 scale)): 0%; pest or weed control at 125 g/ha ([8]; visual rating about 10 d after treatment, read-out: Blackgrass plant response rating (0 to 100 scale)): 0%; pest or weed control at 125 g/ha ([9]; visual rating about 10 d after treatment, read-out: Galium plant response rating (0 to 100 scale)): 0% |
